target: T1, recombinant human Estrogen Receptor alpha ligand binding domain, residues 307-554 (ER alpha-LBD (GST)) (Homo sapiens, UniProt P03372); test: ERα binding assay (LanthaScreen TR-FRET competition); details: TR-FRET competition with Fluormone ES2 tracer, 4 hours at room temperature; single experiment or average of two or more
T1 construct: made in house
T1 sequence (P03372 307-554): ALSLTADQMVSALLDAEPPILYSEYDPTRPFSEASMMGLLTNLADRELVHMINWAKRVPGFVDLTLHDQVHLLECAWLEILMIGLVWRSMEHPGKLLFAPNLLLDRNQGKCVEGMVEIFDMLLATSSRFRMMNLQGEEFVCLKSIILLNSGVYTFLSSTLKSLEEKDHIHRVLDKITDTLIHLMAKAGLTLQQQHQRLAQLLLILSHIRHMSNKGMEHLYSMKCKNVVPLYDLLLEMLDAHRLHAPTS

SMILES | IC50 [nM]
Cc1ncsc1-c1ccc(CNC(=O)[C@@H]2C[C@@H](O)CN2C(=O)[C@@H](NC(=O)COCCOc2ccc(COc3cc(F)c([C@@H]4c5[nH]c6ccccc6c5C[C@@H](C)N4CC(C)(C)F)c(F)c3)cc2)C(C)(C)C)cc1 [Example 5, (2S,4R)-1-((S)-2-(2-(2-(4-((3,5-Difluoro-4-((1R,3R)-2-(2-fluoro-2-methylpropyl)-3-methyl-2,3,4,9-tetrahydro-1H-pyrido[3,4-b]indol-1-yl)phenoxy)methyl)phenoxy)ethoxy)acetamido)-3,3-dimethylbutanoyl)-4-hydroxy-N-(4-(4-methylthiazol-5-yl)benzyl)pyrrolidine-2-carboxamide] | 0.8
Cc1ncsc1-c1ccc(CNC(=O)[C@@H]2C[C@@H](O)CN2C(=O)[C@@H](NC(=O)COCCCCCCCOc2ccc([C@@H]3c4[nH]c5ccccc5c4C[C@@H](C)N3CC(F)F)nc2)C(C)(C)C)cc1 [Example 6, (2S,4R)-1-((S)-2-(2-((7-((6-((1S,3R)-2-(2,2-Difluoroethyl)-3-methyl-2,3,4,9-tetrahydro-1H-pyrido[3,4-b]indol-1-yl)pyridin-3-yl)oxy)heptyl)oxy)acetamido)-3,3-dimethylbutanoyl)-4-hydroxy-N-(4-(4-methylthiazol-5-yl)benzyl)pyrrolidine-2-carboxamide] | 4.2
Cc1ncsc1-c1ccc(CNC(=O)[C@@H]2C[C@@H](O)CN2C(=O)[C@@H](NC(=O)COCCCCCCCOc2cc(F)c([C@@H]3c4[nH]c5ccccc5c4C[C@@H](C)N3CC(C)(C)F)c(F)c2)C(C)(C)C)cc1 [Example 7, (2S,4R)-1-((S)-2-(2-((7-(3,5-Difluoro-4-((1R,3R)-2-(2-fluoro-2-methylpropyl)-3-methyl-2,3,4,9-tetrahydro-1H-pyrido[3,4-b]indol-1-yl)phenoxy)heptyl)oxy)acetamido)-3,3-dimethylbutanoyl)-4-hydroxy-N-(4-(4-methylthiazol-5-yl)benzyl)pyrrolidine-2-carboxamide] | 1.2
Cc1ncsc1-c1ccc(CNC(=O)[C@@H]2C[C@@H](O)CN2C(=O)[C@@H](NC(=O)COCCCCCCOc2ccc([C@@H]3c4[nH]c5ccccc5c4C[C@@H](C)N3CC(F)F)nc2)C(C)(C)C)cc1 [Example 8, (2S,4R)-1-((S)-2-(2-((6-((6-((1S,3R)-2-(2,2-Difluoroethyl)-3-methyl-2,3,4,9-tetrahydro-1H-pyrido[3,4-b]indol-1-yl)pyridin-3-yl)oxy)hexyl)oxy)acetamido)-3,3-dimethylbutanoyl)-4-hydroxy-N-(4-(4-methylthiazol-5-yl)benzyl)pyrrolidine-2-carboxamide] | 6.8
Cc1ncsc1-c1ccc(CNC(=O)[C@@H]2C[C@@H](O)CN2C(=O)[C@@H](NC(=O)COCCCCCOCCOc2cc(F)c([C@@H]3c4[nH]c5ccccc5c4C[C@@H](C)N3CC(C)(C)F)c(F)c2)C(C)(C)C)cc1 [Example 9, (2S,4R)-1-((S)-2-(2-((5-(2-(3,5-Difluoro-4-((1R,3R)-2-(2-fluoro-2-methylpropyl)-3-methyl-2,3,4,9-tetrahydro-1H-pyrido[3,4-b]indol-1-yl)phenoxy)ethoxy)pentyl)oxy)acetamido)-3,3-dimethylbutanoyl)-4-hydroxy-N-(4-(4-methylthiazol-5-yl)benzyl)pyrrolidine-2-carboxamide] | 0.8
Cc1ncsc1-c1ccc(CNC(=O)[C@@H]2C[C@@H](O)CN2C(=O)[C@@H](NC(=O)COCCCCCOCCOc2ccc([C@@H]3c4[nH]c5ccccc5c4C[C@@H](C)N3CC(F)F)nc2)C(C)(C)C)cc1 [Example 10, (2S,4R)-1-((S)-2-(2-((5-(2-((6-((1S,3R)-2-(2,2-Difluoroethyl)-3-methyl-2,3,4,9-tetrahydro-1H-pyrido[3,4-b]indol-1-yl)pyridin-3-yl)oxy)ethoxy)pentyl)oxy)acetamido)-3,3-dimethylbutanoyl)-4-hydroxy-N-(4-(4-methylthiazol-5-yl)benzyl)pyrrolidine-2-carboxamide] | 39
Cc1ncsc1-c1ccc(CNC(=O)[C@@H]2C[C@@H](O)CN2C(=O)[C@@H](NC(=O)CCCCCCCCCOc2cc(F)c([C@@H]3c4[nH]c5ccccc5c4C[C@@H](C)N3CC(C)(C)F)c(F)c2)C(C)(C)C)cc1 [Example 11, (2S,4R)-1-((S)-2-(10-(3,5-Difluoro-4-((1R,3R)-2-(2-fluoro-2-methylpropyl)-3-methyl-2,3,4,9-tetrahydro-1H-pyrido[3,4-b]indol-1-yl)phenoxy)decanamido)-3,3-dimethylbutanoyl)-4-hydroxy-N-(4-(4-methylthiazol-5-yl)benzyl)pyrrolidine-2-carboxamide] | 1.5
Cc1ncsc1-c1ccc(CNC(=O)[C@@H]2C[C@@H](O)CN2C(=O)[C@@H](NC(=O)COCCCCCCCCOc2cc(F)c([C@@H]3c4[nH]c5ccccc5c4C[C@@H](C)N3CC(C)(C)F)c(F)c2)C(C)(C)C)cc1 [Example 12, (2S,4R)-1-((S)-2-(2-((8-(3,5-Difluoro-4-((1R,3R)-2-(2-fluoro-2-methylpropyl)-3-methyl-2,3,4,9-tetrahydro-1H-pyrido[3,4-b]indol-1-yl)phenoxy)octyl)oxy)acetamido)-3,3-dimethylbutanoyl)-4-hydroxy-N-(4-(4-methylthiazol-5-yl)benzyl)pyrrolidine-2-carboxamide] | 1.6
Cc1ncsc1-c1ccc(CNC(=O)[C@@H]2C[C@@H](O)CN2C(=O)[C@@H](NC(=O)COCCCCCCCCOc2ccc([C@@H]3c4[nH]c5ccccc5c4C[C@@H](C)N3CC(F)F)nc2)C(C)(C)C)cc1 [Example 13, (2S,4R)-1-((S)-2-(2-((8-((6-((1S,3R)-2-(2,2-Difluoroethyl)-3-methyl-2,3,4,9-tetrahydro-1H-pyrido[3,4-b]indol-1-yl)pyridin-3-yl)oxy)octyl)oxy)acetamido)-3,3-dimethylbutanoyl)-4-hydroxy-N-(4-(4-methylthiazol-5-yl)benzyl)pyrrolidine-2-carboxamide] | 5
Cc1ncsc1-c1ccc(CNC(=O)[C@@H]2C[C@@H](O)CN2C(=O)[C@@H](NC(=O)COCCCCOc2cc(F)c([C@@H]3c4[nH]c5ccccc5c4C[C@@H](C)N3CC(C)(C)F)c(F)c2)C(C)(C)C)cc1 [Example 14, (2S,4R)-1-((S)-2-(2-(4-(3,5-Difluoro-4-((1R,3R)-2-(2-fluoro-2-methylpropyl)-3-methyl-2,3,4,9-tetrahydro-1H-pyrido[3,4-b]indol-1-yl)phenoxy)butoxy)acetamido)-3,3-dimethylbutanoyl)-4-hydroxy-N-(4-(4-methylthiazol-5-yl)benzyl)pyrrolidine-2-carboxamide] | 0.9
Cc1ncsc1-c1ccc(CNC(=O)[C@@H]2C[C@@H](O)CN2C(=O)[C@@H](NC(=O)CCCCCCCCOc2cc(F)c([C@@H]3c4[nH]c5ccccc5c4C[C@@H](C)N3CC(C)(C)F)c(F)c2)C(C)(C)C)cc1 [Example 15, (2S,4R)-1-((S)-2-(9-(3,5-Difluoro-4-((1R,3R)-2-(2-fluoro-2-methylpropyl)-3-methyl-2,3,4,9-tetrahydro-1H-pyrido[3,4-b]indol-1-yl)phenoxy)nonanamido)-3,3-dimethylbutanoyl)-4-hydroxy-N-(4-(4-methylthiazol-5-yl)benzyl)pyrrolidine-2-carboxamide] | 1.5

— patent US10519152B2, “Compounds and their use in treating cancer” (AstraZeneca AB, priority 2017, dated 2019)
